Data on three compounds can be found in patent US20240216462A1, “PHARMACEUTICAL COMPOSITION FOR ENHANCING IMMUNITY OR ANTI-CANCER ACTIVITY INCLUDING EXTRACT OF PSEUDOLYSIMACHION NAKAIANUM (OHWI) T.YAMAZ AS ACTIVE INGREDIENT” (KOREA INSTITUTE OF SCIENCE AND TECHNOLOGY, priority 2022, published 2024).

The subject of assay [1] is CD4+ T cells induced to differentiate into Th17. Briefly: Differentiation and functional enhancement activity of Th17 cells (IL-17 expression). In kind it is cell-based, C57BL/6J mice. The note with it: 25 μM final concentration; culture for 3 days under Th17 differentiation conditions; Veh control about 35%. An excerpt:
8-week-old C57BL/6J mice were purchased and adapted for 1 week, and then CD4+ T cells were isolated from spleens and lymph nodes. Th17 cell differentiation was induced by media containing IL-6, TGF-beta1, IL-1beta, anti-IFN-gamma, and anti-IL-4, and through culturing for 3 days, it was confirmed that about 35% of IL-17 cytokine was expressed in a Veh group, which was a control group treated with only a solvent of the compound, thereby establishing basic conditions for the differentiation of Th17 cells. Under the conditions of differentiation of Th17 cells, each substance was treated at a final concentration of 25 μM.
As a result, as may be seen in the drawings, it was confirmed that Compounds 1 to 3 increased the IL-17 cytokine expression by 70%, 63%, and 62%, respectively, and through this, it was confirmed that the three compounds were able to improve the differentiation and function of Th17 cells.

The subject of assay [2] is CD4+ T cells induced to differentiate into Treg. Briefly: Differentiation and function of Treg cells (Foxp3 expression). It counts as cell-based, C57BL/6J mice. The note with it: 25 μM final concentration; culture for 3 days in medium containing IL-2 and TGF-beta1; control about 19%. As to the method:
• 8-week-old C57BL/6J mice were purchased and adapted for 1 week, and then CD4+ T cells were isolated from spleens and lymph nodes. Differentiation of regulatory T cells was transferred through a medium containing IL-2 and TGF-beta1, and through culture for 3 days, it was confirmed that about 19% of a Foxp3 transcription factor was expressed in the control group. Each substance was treated at a final concentration of 25 μM.

For the compound `CO[C@@H]1C[C@H]2[C@H](OC(=O)c3ccc(O)c(O)c3)[C@@H]3O[C@]3(CO)[C@H]2C(O[C@@H]2O[C@H](CO)[C@@H](O)[C@H](O)[C@H]2O)O1` (stereo partly drawn) [Compound 1, veroninakaioside G], the “increased the IL-17 cytokine expression” value in assay [1] was 70%. Also, in assay [2], the “reduced the Foxp3 transcription factor expression” value is recorded as 4.4%.

As to `COc1ccc(CCO[C@@H]2O[C@H](CO)[C@@H](OC(=O)/C=C/c3ccc(O)c(OC)c3)[C@H](O[C@@H]3O[C@H](CO)[C@@H](O)[C@H](O)[C@H]3O)[C@H]2O[C@@H]2O[C@H](CO)[C@@H](O)[C@H](O)[C@H]2O)cc1O` [Compound 2, chionoside I], the “increased the IL-17 cytokine expression” value in assay [1] came to 63%. The “reduced the Foxp3 transcription factor expression” value in assay [2] amounted to 8.3%.

With `COc1cc(/C=C/C(=O)OC[C@H]2O[C@@H](OCCc3ccc(O)c(OC)c3)[C@H](O)[C@@H](O[C@@H]3O[C@H](CO)[C@@H](O)[C@H](O)[C@H]3O[C@@H]3O[C@H](CO)[C@@H](O)[C@H](O)[C@H]3O)[C@@H]2O)ccc1O` [Compound 3, veroninakaioside H], the “increased the IL-17 cytokine expression” value in assay [1] is on record as 62%. For the same compound, the “reduced the Foxp3 transcription factor expression” value in assay [2] amounted to 6.6%.
